Patent US20040248905A1, “6-Substituted pyrazolo [3,4-d] pyrimidin-4-ones useful as cyclin dependent kinase inhibitors” (priority 2001, published 2004)

Structure (SMILES): CC(C)c1[nH]n(-c2c(Cl)cc(Cl)cc2Cl)c2nc(Cc3ccc(NC(=O)OCCCN(C)C)cc3)nc(=O)c1-2 [Example 1, 1-(2,4,6-trichlorophenyl)-3-isopropyl-6-(4-(3-(N,N-dimethylamino)prop-1-yloxycarbonylamino)benzyl)pyrazolo[3,4-d]pyrimidin-4-one]
- melting point: 200 to 202 °C
